What was measured:
[1] = system: U25C (3WJ site mutant) (RNA, riboswitch) GGAGAGUAGAUGAUUCGCGUUAAGCGUGUGUGAAUGGGAUGUCGUCACACAACGAAGCGAGAGCGCGGUGAAUCAUUGCAUCCGCUCCA; assay: ITC; settings: 6 mM MgCl2, 100 mM NaCl, 10 mM KCl; 10 mM HEPES pH 8.0, 1 mM DTT, 25 °C
[2] = system: U7C (PK site mutant) (RNA, riboswitch) GGAGAGCAGAUGAUUCGCGUUAAGUGUGUGUGAAUGGGAUGUCGUCACACAACGAAGCGAGAGCGCGGUGAAUCAUUGCAUCCGCUCCA; assay: ITC; settings: 6 mM MgCl2, 100 mM NaCl, 10 mM KCl; 10 mM HEPES pH 8.0, 1 mM DTT, 25 °C
[3] = system: Smu wild type (wt) THF riboswitch aptamer, crystallization sequence (RNA, riboswitch) GGAGAGUAGAUGAUUCGCGUUAAGUGUGUGUGAAUGGGAUGUCGUCACACAACGAAGCGAGAGCGCGGUGAAUCAUUGCAUCCGCUCCA; settings: apparent; ligand not given, THF from context

SMILES	KD [1] [µM]	KD [2] [µM]	KD,app [3] [µM]
Nc1nc2c(c(=O)[nH]1)N(C=O)[C@@H](CNc1ccc(C(=O)N[C@@H](CCC(=O)O)C(=O)O)cc1)CN2	18 ± 1	23 ± 2	
Nc1nc2c(c(=O)[nH]1)N[C@@H](CNc1ccc(C(=O)N[C@@H](CCC(=O)O)C(=O)O)cc1)CN2			18 ± 1

Source: article PMC3196276 (2011)
